Series [1] deals with CCRF-CEM. Kind of series: Antiviral activity was evaluated against HIV-IIIB strain of HIV-1 in CEM cell culture assay. It counts as functional, cell-based. As to conditions: Homo sapiens.
The target of series [2] is T1, Human immunodeficiency virus type 1 protease (Human immunodeficiency virus 1, UniProt Q72874). The series is described as follows: Inhibitory activity against HIV-1 protease in spectrofluorimetric assay.
Series [3] in a line: Bioavailability in rat. It counts as ADME, organism-based. As to conditions: in vivo.
Series [4] is described as follows: Half-life was evaluated in rats. It counts as ADME, organism-based. As to conditions: rat, in vivo.
Series [5] can be described thus: Maximum concentration was evaluated in rats. It counts as ADME, organism-based. As to conditions: rat, in vivo.
The test system of series [6] is CCRF-CEM. Kind of series: Toxic dose was evaluated against HIV-IIIB strain of HIV-1 in CEM cell culture assay. As to conditions: Homo sapiens, CEM cells; read-out: TD50 (the source's name).
Series [7] has as its target T1, Human immunodeficiency virus type 1 protease. The series is described as follows: Inhibitory activity was evaluated against recombinant HIV-1 protease using spectrofluorimetric assay.

Molecules are shown by their SMILES.

The EC50 is the concentration needed to bring the measured effect to its halfway point. In general, IC50 refers to the concentration that gives 50% inhibition. As a reminder, the bioavailability is dose-corrected exposure relative to a reference, in per cent. Low readings indicate little systemic uptake, high ones much systemic uptake. As usually defined, the half-life is how long it takes for the measured level to halve. A high value points to slow loss. In general, Cmax refers to the highest concentration seen after dosing.

As to `COc1ccc(S(=O)(=O)N(CC(C)C)C[C@@H](O)[C@H](Cc2ccccc2)NC(=O)c2ccc(N)cc2C)cc1`, in the series with CCRF-CEM [1], the EC50 was 18 nM.
In the case of `COc1ccc(S(=O)(=O)N(CC(C)C)C[C@@H](O)[C@H](Cc2ccccc2)NC(=O)c2ccc(C)cc2)cc1`, the IC50 in series [2] stood at 15 nM.
`COc1ccc(S(=O)(=O)N(CC(C)C)C[C@@H](O)[C@H](Cc2ccccc2)NC(=O)c2ccccc2C(C)C)cc1` showed a half-inhibitory concentration (IC50) in series [2] of 49 nM.
As to `COc1ccc(S(=O)(=O)N(CC(C)C)C[C@@H](O)[C@H](Cc2ccccc2)NC(=O)c2cccc(N)c2C)cc1`, in series [3], the bioavailability was determined as 54%. In series [4], the half-life was 1 h. Also, the Cmax in series [5] is 1800 ng/mL. This compound also returned an EC50 with CCRF-CEM [1] of 18 nM. Further, in the series with CCRF-CEM [6], the CC50 was greater than 10000 nM.
For `COc1ccc(S(=O)(=O)N(CC(C)C)C[C@@H](O)[C@H](Cc2ccccc2)NC(=O)c2cccc(O)c2C)cc1`, in series [3], the bioavailability came out at 12%. Moreover, the half-life in series [4] is 1 h. In series [5], the concentration peaked (Cmax) at 270 ng/mL. Further, the concentration for a half-maximal effect (EC50) in the series with CCRF-CEM [1] was 7 nM. The CC50 in the series with CCRF-CEM [6] was greater than 10000 nM.
In turn, `COc1ccc(S(=O)(=O)N(CC(C)C)C[C@@H](O)[C@H](Cc2ccccc2)NC(=O)c2ccc(O)cc2C)cc1` had an EC50 in the series on CCRF-CEM [1] of 9 nM. Also, in series [7], the IC50 amounted to 5 nM. Further, the CC50 in the series on CCRF-CEM [6] was greater than 10000 nM.
`COc1ccc(S(=O)(=O)N(CC(C)C)C[C@@H](O)[C@H](Cc2ccccc2)NC(=O)c2cccc(C)c2)cc1` showed an IC50 in series [2] of 27 nM.
As for `COc1ccc(S(=O)(=O)N(CC(C)C)C[C@@H](O)[C@H](Cc2ccccc2)NC(=O)c2ccccc2C(F)(F)F)cc1`, in series [2], the half-maximal inhibitory concentration (IC50) is 37 nM.
Turning to `COc1ccc(S(=O)(=O)N(CC(C)C)C[C@@H](O)[C@H](Cc2ccccc2)NC(=O)c2cc(N)ccc2C)cc1`, the EC50 in the series with CCRF-CEM [1] turned out to be 82 nM. Besides, the CC50 in the series with CCRF-CEM [6] is greater than 10000 nM.
In turn, `COc1ccc(S(=O)(=O)N(CC(C)C)C[C@@H](O)[C@H](Cc2ccccc2)NC(=O)c2ccccc2C)cc1` gave a 50% effective concentration (EC50) in the series with CCRF-CEM [1] of 200 nM.
Consider `COc1ccc(S(=O)(=O)N(CC(C)C)C[C@@H](O)[C@H](Cc2ccccc2)NC(=O)c2cc(O)ccc2C)cc1`, for which the IC50 in series [7] turned out to be 40 nM. In addition, in the series on CCRF-CEM [6], the CC50 is greater than 10000 nM.
For `COc1ccc(S(=O)(=O)N(CC(C)C)C[C@@H](O)[C@H](Cc2ccccc2)NC(=O)c2ccccc2O)cc1`, in series [2], the IC50 turned out to be 900 nM.
